Measurements published in ChEMBL document CHEMBL5346870, “Discovery of novel 5-methoxybenzothiophene hydrazides as metabolically stable Clk1 inhibitors with high potency and unprecedented Clk1 isoenzyme selectivity” (Eur J Med Chem, 2023).

Key:
[1] = molecular target: T1, Dual specificity protein kinase CLK1 (Homo sapiens, UniProt P49759); details: dose 100.0 nM, time 15.0 min
Target sequence in this assay (P49759 whole entry, looked up): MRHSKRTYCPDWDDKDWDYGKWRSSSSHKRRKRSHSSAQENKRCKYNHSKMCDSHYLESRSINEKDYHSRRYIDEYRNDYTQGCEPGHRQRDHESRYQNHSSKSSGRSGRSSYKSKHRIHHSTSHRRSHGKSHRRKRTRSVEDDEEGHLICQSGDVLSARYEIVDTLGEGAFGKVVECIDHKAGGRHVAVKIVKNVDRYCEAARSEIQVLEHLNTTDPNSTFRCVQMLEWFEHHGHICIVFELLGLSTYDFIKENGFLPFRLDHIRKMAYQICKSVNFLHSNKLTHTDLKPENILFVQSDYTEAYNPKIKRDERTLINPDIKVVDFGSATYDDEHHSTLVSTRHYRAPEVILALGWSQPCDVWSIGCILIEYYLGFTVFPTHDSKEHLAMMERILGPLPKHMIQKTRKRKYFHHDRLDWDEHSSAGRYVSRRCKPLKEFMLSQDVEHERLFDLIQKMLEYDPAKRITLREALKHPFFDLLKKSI

[2] = Selectivity index, ratio of inhibition of DYRK1A (unknown origin) to inhibition of CLK1 (unknown origin)
[3] = molecular target: T1, Dual specificity protein kinase CLK1; assay: Inhibition of human CLK1 using GRSRSRSRSRSRSRS as substrate incubated for 15 mins in presence of ATP by gamma32P-ATP based analysis
Target sequence in this assay (P49759 whole entry): as the sequence (P49759 whole entry, looked up) above

T-24 [4] = assay: Antiproliferative activity against human T24 cells assessed as cell growth inhibition incubated for 3 days by MTT assay; type: functional; details: T-24, 72 h, time 3 day
NHDF = assay: Cytotoxicity against HDF cells assessed as inhibition of cell growth at 15 uM incubated for 2 days by WST-1 analysis; type: toxicity, cell-based; details: human, 48 h, time 2 day
[5] = Metabolic stability in pooled human liver S9 fraction assessed as half life at 0.3 uM incubated for 120 mins in presence of NADPH regenerating system by LC-MS/MS analysis; type: ADME, subcellular
[6] = Metabolic stability in human liver microsomes assessed as half life; type: ADME, Microsome
[7] = Cytotoxicity against HDF cells assessed as cell growth inhibition at 15 uM incubated for 2 days by WST-1 analysis relative to control; type: toxicity, cell-based; details: human, HDF cells (NHDF, normal human dermal fibroblasts), time 2 day, read-out: GI
T-24 [8] = assay: Antiproliferative activity against human T24 cells assessed as cell growth inhibition; type: functional
[9] = molecular target: Dual specificity tyrosine-phosphorylation-regulated kinase 1A (Homo sapiens, UniProt Q13627); assay: Inhibition of DYRK1A (unknown origin) in presence of ATP
[10] = molecular target: Dual specificity protein kinase CLK4 (Homo sapiens, UniProt Q9HAZ1); assay: Inhibition of CLK4 (unknown origin) in presence of ATP
[11] = Selectivity index, ratio of IC50 for inhibition of CLK2 (unknown origin) to IC50 for inhibition of CLK1 (unknown origin)

Dual specificity protein kinase CLK4, sequence (Q9HAZ1 whole entry): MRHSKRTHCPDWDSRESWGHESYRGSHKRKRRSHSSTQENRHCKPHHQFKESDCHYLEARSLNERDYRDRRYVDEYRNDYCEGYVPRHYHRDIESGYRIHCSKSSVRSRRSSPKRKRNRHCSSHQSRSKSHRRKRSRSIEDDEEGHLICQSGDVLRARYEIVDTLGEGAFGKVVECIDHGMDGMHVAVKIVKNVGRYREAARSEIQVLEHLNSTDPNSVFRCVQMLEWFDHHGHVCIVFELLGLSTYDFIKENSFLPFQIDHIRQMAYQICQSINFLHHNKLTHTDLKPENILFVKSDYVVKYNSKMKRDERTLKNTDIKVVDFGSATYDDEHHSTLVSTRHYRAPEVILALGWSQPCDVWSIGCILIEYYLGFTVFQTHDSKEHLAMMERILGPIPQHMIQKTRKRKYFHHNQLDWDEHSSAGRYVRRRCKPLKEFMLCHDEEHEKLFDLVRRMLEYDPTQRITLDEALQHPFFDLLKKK

**Q.** For `COc1ccc2sc(C(=O)NNc3ccc(I)cc3)cc2c1`, which inhibition [1] is on record?
**A.** 16.9%

**Q.** Which inhibition [1] does the source give for `COc1ccc2sc(C(=O)NNc3c(Cl)cccc3Cl)cc2c1` here?
**A.** 0%

**Q.** Which Selectivity Index [2] does the source give for `C[C@@H](c1ccc(F)cc1)n1nnc2cnc3ccc(-c4ccc5ocnc5c4)cc3c21` here?
**A.** 69

**Q.** With `COc1ccc2sc(C(=O)NNc3ccccn3)cc2c1` as the compound, how does the inhibition [1] read?
**A.** 28.9%

**Q.** For `COc1ccc2sc(C(=O)NNc3ccc(C)c(Cl)c3)cc2c1`, which inhibition [1] is on record?
**A.** 25.9%

**Q.** Which inhibition [1] does the source give for `COc1ccc2sc(C(=O)N(C)N(C)c3cc(Cl)cc(Cl)c3)cc2c1` here?
**A.** 66.3%

**Q.** And the IC50 [3]?
**A.** 63.5 nM

**Q.** For `COc1ccc2sc(C(=O)NNc3cccc(Br)n3)cc2c1`, which GI50 (T-24 [4]) is on record?
**A.** 11400 nM

**Q.** For `COc1cccc(NNC(=O)c2cc3cc(OC)ccc3s2)c1`, which Activity (NHDF) is on record?
**A.** Non-Toxic

**Q.** And the GI50 (T-24 [4])?
**A.** > 15000 nM

**Q.** What about the inhibition [1] of the same compound?
**A.** 86.8%

**Q.** What about the IC50 [3] of the same compound?
**A.** 3.7 nM

**Q.** With `COc1ccc2sc(C(=O)NNc3cccc(C)c3)cc2c1` as the compound, how does the inhibition [1] read?
**A.** 29.9%

**Q.** With `COc1ccc2sc(C(=O)NC(=O)c3cc(Cl)ccc3OC)cc2c1` as the compound, how does the Selectivity Index [2] read?
**A.** 60

**Q.** What about the half-life at 0.3 µM [5] of the same compound?
**A.** 10.2 min

**Q.** And the half-life [6]?
**A.** 10 min

**Q.** Which inhibition [1] does the source give for `COc1ccc2sc(C(=O)NNc3cccc(C(F)(F)F)c3)cc2c1` here?
**A.** 63%

**Q.** What about the IC50 [3] of the same compound?
**A.** 73 nM

**Q.** For `COc1ccc2sc(C(=O)N(C)N(C)c3cc(F)cc(F)c3)cc2c1`, which inhibition at 48 h, 15 µM [7] is on record?
**A.** 20.8%

**Q.** What about the GI50 (T-24 [4]) of the same compound?
**A.** > 15000 nM

**Q.** And the inhibition [1]?
**A.** 85%

**Q.** What about the IC50 [3] of the same compound?
**A.** 24.5 nM

**Q.** Which inhibition [1] does the source give for `COc1ccc2sc(C(=O)NNc3ccc(C(F)(F)F)cc3)cc2c1` here?
**A.** 0%

**Q.** For `COc1ccc2sc(C(=O)N(C)Nc3cccc(Cl)c3)cc2c1`, which Activity (NHDF) is on record?
**A.** Non-Toxic

**Q.** And the GI50 (T-24 [4])?
**A.** > 15000 nM

**Q.** For `COc1ccc2sc(C(=O)N(C)N(C)c3cccc(Br)n3)cc2c1`, which inhibition [1] is on record?
**A.** 77.2%

**Q.** What about the IC50 [3] of the same compound?
**A.** 12.9 nM

**Q.** Which inhibition [1] does the source give for `COc1ccc2sc(C(=O)NNc3cccc(Br)c3)cc2c1` here?
**A.** 84.6%

**Q.** And the IC50 [3]?
**A.** 37.7 nM

**Q.** For `COc1ccc2sc(C(=O)N(C)Cc3cc(F)cc(F)c3)cc2c1`, which inhibition at 48 h, 15 µM [7] is on record?
**A.** 9.16%

**Q.** And the GI50 (T-24 [4])?
**A.** 1780 nM

**Q.** And the GI50 (T-24 [8])?
**A.** 430 nM

**Q.** And the half-life at 0.3 µM [5]?
**A.** 9.9 min

**Q.** And the half-life [6]?
**A.** 10 min

**Q.** With `COc1ccc2sc(C(=O)N(C)N(C)c3cccc([N+](=O)[O-])c3)cc2c1` as the compound, how does the inhibition [1] read?
**A.** 47.8%

**Q.** For `COc1ccc2sc(C(=O)N(C)N(C)c3cccc(N)c3)cc2c1`, which inhibition [1] is on record?
**A.** 51.2%

**Q.** And the IC50 [3]?
**A.** 97.4 nM

**Q.** For `COc1ccc2sc(C(=O)NNc3ccc([N+](=O)[O-])cc3)cc2c1`, which inhibition [1] is on record?
**A.** 7.2%

**Q.** Which inhibition [1] does the source give for `COc1ccc2sc(C(=O)NNc3cccc([N+](=O)[O-])c3)cc2c1` here?
**A.** 68.4%

**Q.** What about the IC50 [3] of the same compound?
**A.** 85.6 nM

**Q.** For `COc1ccc2sc(C(=O)NNc3cc(Cl)cc(Cl)c3)cc2c1`, which GI50 (T-24 [4]) is on record?
**A.** 3400 nM

**Q.** And the half-life at 0.3 µM [5]?
**A.** 385 min

**Q.** What about the IC50 [9] of the same compound?
**A.** 191 nM

**Q.** And the IC50 [10]?
**A.** 13.4 nM

**Q.** With `COc1ccc2sc(C(=O)NNc3cccc(N)c3)cc2c1` as the compound, how does the inhibition [1] read?
**A.** 49%

**Q.** Which inhibition [1] does the source give for `COc1ccc2sc(C(=O)NNc3ccc(F)cc3)cc2c1` here?
**A.** 5%

**Q.** With `COc1ccc2sc(C(=O)NNc3ccc(C(C)C)cc3)cc2c1` as the compound, how does the inhibition [1] read?
**A.** 3.8%

**Q.** Which inhibition [1] does the source give for `COc1ccc2sc(C(=O)NNc3ncccc3Cl)cc2c1` here?
**A.** 0%

**Q.** For `COc1ccc2sc(C(=O)NNc3ccc(F)c(Cl)c3)cc2c1`, which inhibition [1] is on record?
**A.** 27.9%

**Q.** Which results are given for `COc1ccc2sc(C(=O)NNc3cccc(F)c3)cc2c1`?
**A.** inhibition [1]: 70.5%; IC50 [3]: 66.5 nM

**Q.** For `COc1ccc2sc(C(=O)NNc3cc(C(F)(F)F)cc(C(F)(F)F)c3)cc2c1`, which inhibition [1] is on record?
**A.** 22.3%

**Q.** For `COc1ccc2sc(C(=O)NNc3ccc(C#N)cc3)cc2c1`, which Activity (NHDF) is on record?
**A.** Non-Toxic

**Q.** What about the GI50 (T-24 [4]) of the same compound?
**A.** > 15000 nM

**Q.** What about the inhibition [1] of the same compound?
**A.** 18.4%

**Q.** And the IC50 [3]?
**A.** > 100 nM

**Q.** With `CC(C)(C)c1ccc(C(=O)Nc2cn3cc(-c4cn[nH]c4)ccc3n2)cn1` as the compound, how does the Ratio IC50 [11] read?
**A.** 2.2

**Q.** For `COc1ccc2sc(C(=O)NNc3ccc(C)cc3C)cc2c1`, which inhibition [1] is on record?
**A.** 0%

**Q.** For `COc1ccc2sc(C(=O)NNc3nc(OC)ncc3F)cc2c1`, which inhibition [1] is on record?
**A.** 0%

**Q.** Which inhibition [1] does the source give for `COc1ccc2sc(C(=O)NNc3ccc(Cl)cc3Cl)cc2c1` here?
**A.** 30.4%

**Q.** With `COc1ccc2sc(C(=O)NNc3ccccc3Br)cc2c1` as the compound, how does the inhibition [1] read?
**A.** 6.2%

**Q.** For `COc1ccc2sc(C(=O)NNc3ccc(F)c(F)c3)cc2c1`, which inhibition [1] is on record?
**A.** 17.7%

**Q.** For `COc1ccc2sc(C(=O)NNc3ccccc3Cl)cc2c1`, which inhibition [1] is on record?
**A.** 29.5%

**Q.** For `COc1ccc2sc(C(=O)NNc3ccc(Cl)cc3)cc2c1`, which inhibition [1] is on record?
**A.** 12.8%

**Q.** Which inhibition [1] does the source give for `COc1ccc2sc(C(=O)NNc3ccc(Br)cc3)cc2c1` here?
**A.** 21.3%

**Q.** For `COc1ccc2sc(C(=O)NNc3ccccc3F)cc2c1`, which inhibition [1] is on record?
**A.** 18.6%

**Q.** With `COc1ccc2sc(C(=O)NNc3ccc(F)cc3F)cc2c1` as the compound, how does the inhibition [1] read?
**A.** 4.1%

**Q.** With `COc1ccc2sc(C(=O)N(C)N(C)c3cccc(Br)c3)cc2c1` as the compound, how does the inhibition [1] read?
**A.** 68.1%

**Q.** And the IC50 [3]?
**A.** 73.8 nM

**Q.** Which results are given for `COc1ccc2sc(C(=O)NNc3cc(F)cc(F)c3)cc2c1`?
**A.** Activity (NHDF): Non-Toxic; GI50 (T-24 [4]): 8900 nM; half-life at 0.3 µM [5]: 56.9 min; IC50 [9]: 201 nM; IC50 [10]: 21.1 nM

**Q.** Which inhibition [1] does the source give for `COc1ccc2sc(C(=O)NNc3ccccc3)cc2c1` here?
**A.** 38.1%

**Q.** For `CNc1ncc2cc3cnccc3c([N+](=O)[O-])c2n1`, which Selectivity Index [2] is on record?
**A.** 34

**Q.** What does the source list for `Cn1cc(-c2ccc3occ(-c4cccc(-c5ccncc5)c4)c3n2)cn1`?
**A.** Selectivity Index [2]: 26.6; Ratio IC50 [11]: 2.5

**Q.** With `COc1ccc2sc(C(=O)N(C)N(C)c3cccc(C#N)c3)cc2c1` as the compound, how does the inhibition [1] read?
**A.** 62.7%

**Q.** What about the IC50 [3] of the same compound?
**A.** 32.1 nM

**Q.** Which results are given for `COc1ccc2sc(C(=O)NNc3cccc(C#N)c3)cc2c1`?
**A.** Activity (NHDF): Non-Toxic; GI50 (T-24 [4]): 10000 nM; inhibition [1]: 73.1%; IC50 [3]: 5.4 nM

**Q.** For `COc1ccc2sc(C(=O)N(C)Cc3cccc(F)c3)cc2c1`, which Selectivity Index [2] is on record?
**A.** 48.6

**Q.** And the half-life at 0.3 µM [5]?
**A.** 17.2 min

**Q.** What about the half-life [6] of the same compound?
**A.** 10 min
